In ChEMBL document CHEMBL4257567, “Design of novel lipidated peptidomimetic conjugates for targeting EGFR heterodimerization in HER2 + cancer” (Bioorg Med Chem Lett, 2018):
pIC50: −log10 of the molar value. Activity calls are given as the source filed them. The calls are words filed in the database; no cut-off is given here. Where a SMILES comes first, the peptide text is derived from it. The star is where a group is joined. 6FAM = O=C1OC2(c3ccc(O)cc3Oc3cc(O)ccc32)c2cc(C(=O)*)ccc21; Stearoyl = CCCCCCCCCCCCCCCCCC(=O)*

Experiments:
[1] = system: BT-474; assay: Antiproliferative activity against human BT474 cells after 72 hrs by CellTiter-Glo assay; format: functional, cell-based; conditions: BT-474, 72 h
[2] = biological target: Receptor tyrosine-protein kinase erbB-2 (Homo sapiens) (UniProt P04626); assay: Binding affinity to HER2 in human BT474 cells at 0.5 uM after 30 mins by DAPI staining based microscopic method; format: cell-based
Chain of Receptor tyrosine-protein kinase erbB-2 (Homo sapiens) (P04626 whole entry, the tested form may be a part): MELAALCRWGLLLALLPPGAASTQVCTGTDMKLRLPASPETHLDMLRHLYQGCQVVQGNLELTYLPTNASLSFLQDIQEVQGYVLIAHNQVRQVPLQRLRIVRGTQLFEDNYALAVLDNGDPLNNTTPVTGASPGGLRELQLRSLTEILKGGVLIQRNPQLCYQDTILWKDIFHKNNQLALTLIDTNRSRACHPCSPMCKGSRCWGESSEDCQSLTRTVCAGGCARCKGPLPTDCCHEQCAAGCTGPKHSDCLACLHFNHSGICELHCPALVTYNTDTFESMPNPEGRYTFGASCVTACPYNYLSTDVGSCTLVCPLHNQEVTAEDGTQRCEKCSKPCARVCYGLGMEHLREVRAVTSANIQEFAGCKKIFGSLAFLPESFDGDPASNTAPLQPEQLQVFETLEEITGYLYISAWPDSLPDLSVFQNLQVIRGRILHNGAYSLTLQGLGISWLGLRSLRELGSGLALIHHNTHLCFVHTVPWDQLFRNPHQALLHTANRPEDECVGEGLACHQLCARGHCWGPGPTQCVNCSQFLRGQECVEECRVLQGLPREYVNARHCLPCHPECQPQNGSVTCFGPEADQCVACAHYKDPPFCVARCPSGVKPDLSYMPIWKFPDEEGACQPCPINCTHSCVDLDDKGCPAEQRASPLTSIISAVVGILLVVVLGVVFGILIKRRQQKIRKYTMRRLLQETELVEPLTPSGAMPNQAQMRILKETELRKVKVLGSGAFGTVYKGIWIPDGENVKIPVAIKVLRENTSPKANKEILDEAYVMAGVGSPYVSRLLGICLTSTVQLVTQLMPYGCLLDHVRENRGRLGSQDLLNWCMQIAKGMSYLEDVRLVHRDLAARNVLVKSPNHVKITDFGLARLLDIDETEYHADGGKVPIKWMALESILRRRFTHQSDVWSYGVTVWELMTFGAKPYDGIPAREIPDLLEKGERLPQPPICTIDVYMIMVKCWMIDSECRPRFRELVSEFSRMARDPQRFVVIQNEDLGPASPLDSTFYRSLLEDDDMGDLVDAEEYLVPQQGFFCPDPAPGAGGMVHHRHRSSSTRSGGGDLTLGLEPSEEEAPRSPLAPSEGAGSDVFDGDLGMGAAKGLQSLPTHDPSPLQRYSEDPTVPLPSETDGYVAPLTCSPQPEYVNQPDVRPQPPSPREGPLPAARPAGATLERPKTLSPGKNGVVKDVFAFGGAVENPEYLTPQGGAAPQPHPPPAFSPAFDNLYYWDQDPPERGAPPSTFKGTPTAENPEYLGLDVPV

[3] = biological target: Receptor tyrosine-protein kinase erbB-2 (Homo sapiens) (UniProt P04626); assay: Binding affinity to HER2 in human BT474 cells assessed as receptor internalization at 0.5 uM after 2 hrs by DAPI/Lysotracker staining based microscopic method; format: cell-based
[4] = system: MCF-10A; assay: Antiproliferative activity against human MCF10A cells after 72 hrs by CellTiter-Glo assay; format: cell-based
[5] = system: Calu-3; assay: Antiproliferative activity against human Calu3 cells after 72 hrs by CellTiter-Glo assay; format: functional, cell-based; conditions: Calu-3, 72 h
[6] = system: A549; assay: Antiproliferative activity against human A549 cells after 72 hrs by CellTiter-Glo assay; format: functional, cell-based; conditions: A549, 72 h
[7] = system: MCF7; assay: Antiproliferative activity against human MCF7 cells after 72 hrs by CellTiter-Glo assay; format: functional, cell-based; conditions: MCF7, 72 h
[8] = biological target: Receptor tyrosine-protein kinase erbB-2 (Homo sapiens) (UniProt P04626); assay: Inhibition of FITC-aminocaproic acid-Arg-(S)Anapa-Phe-OH binding to HER2 domain-4 in human BT474 cells at 0.5 to 200 uM after 45 mins by fluorescence assay; format: cell-based
[9] = biological target: Receptor tyrosine-protein kinase erbB-2 (Homo sapiens) (UniProt P04626); assay: Binding affinity to HER2 extracellular domain (unknown origin) at 25 to 100 uM by SPR analysis
[10] = biological target: Receptor tyrosine-protein kinase erbB-2 (Homo sapiens) (UniProt P04626); assay: Binding affinity to HER2 in human BT474 cells assessed as inhibition of HER2:HER3 heterodimerization at 1 to 5 uM after 48 hrs by DAPI staining based proximity ligation assay; format: cell-based
[11] = biological target: Receptor tyrosine-protein kinase erbB-2 (Homo sapiens) (UniProt P04626); assay: Inhibition of Stearic acid-Gly-Arg-(S)Anapa-Phe-Asp-Gly-Gly-Gly-Lys-OH (FAM Lys side chain) binding to HER2 domain-4 in human BT474 cells at 0.5 to 100 uM after 1 hr by DAPI staining based microscopic method; format: cell-based
[12] = Half life in human serum by HPLC analysis; format: ADME, cell-free
[13] = Stability in human serum after 24 hrs by MALDI-TOF-MS analysis; format: ADME, cell-free
[14] = biological target: Receptor tyrosine-protein kinase erbB-2 (Homo sapiens) (UniProt P04626); assay: Binding affinity to HER2 extracellular domain (unknown origin) by SPR analysis
[15] = biological target: Receptor tyrosine-protein kinase erbB-2 (Homo sapiens) (UniProt P04626); assay: Inhibition of FITC-aminocaproic acid-Arg-(S)Anapa-Phe-OH binding to HER2 domain-4 in human BT474 cells after 45 mins by fluorescence assay; format: cell-based
[16] = biological target: Receptor tyrosine-protein kinase erbB-2 (Homo sapiens) (UniProt P04626); assay: Inhibition of Stearic acid-Gly-Arg-(S)Anapa-Phe-Asp-Gly-Gly-Gly-Lys-OH (FAM Lys side chain) binding to HER2 domain-4 in human BT474 cells after 45 mins by fluorescence assay; format: cell-based
[17] = Stability in human serum after 24 hrs by HPLC analysis; format: ADME, cell-free

Row | Compound | pIC50 [1] | pIC50 [4] | pIC50 [5] | pIC50 [6] | pIC50 [7] | further results
1 | CCCCCCCCCCCCCCCCCC(=O)N[C@@H](CCCNC(=N)N)C(=O)N[C@@H](CC(=O)N[C@@H](CCCCN)C(=O)O)c1cccc2ccccc12 | 5.92 | – | – | – | – | –
2 | CCCCCCCCCCCCCCCCCC(=O)NCC(=O)N[C@@H](CCCNC(=N)N)C(=O)N[C@@H](C)C(=O)N[C@@H](C)C(=O)N[C@@H](CC(C)C)C(=O)NCC(=O)NCC(=O)NCC(=O)N[C@@H](CCCCNC(=O)c1ccc2c(c1)C1(OC2=O)c2ccc(O)cc2Oc2cc(O)ccc21)C(=O)O (Stearoyl-GRAALGGGK(6FAM)-OH) | – | – | – | – | – | Activity [2]: inactive; Activity [3]: inactive
3 | CCCCCCCCCCCCCCCC(=O)N[C@@H](CCCNC(=N)N)C(=O)N[C@@H](CC(=O)N[C@@H](CCCCN)C(=O)O)c1cccc2ccccc12 | 5.85 | – | – | – | – | –
4 | CCCCCCCCCCCCCCCC(=O)N[C@@H](CCCNC(=N)N)C(=O)N[C@@H](CC(=O)N[C@@H](Cc1ccccc1)C(=O)O)c1cccc2ccccc12 | 5.85 | < 4.46 | 5.81 | 6.00 | < 4.46 | –
5 | NCCCC[C@H](N)C(=O)Nc1cccc(-c2ccccc2)c1CCC(=O)N[C@@H](Cc1ccccc1)C(=O)O | < 4.46 | – | < 4.46 | < 4.46 | < 4.46 | inhibition [8]: inactive; Activity [9]: inactive
6 | CCCCCCCCCCCCCCCCCC(=O)N[C@@H](CCCNC(=N)N)C(=O)N[C@@H](CC(=O)N[C@@H](Cc1ccccc1)C(=O)O)c1cccc2ccccc12 | 6.00 | < 4.46 | 5.84 | 5.93 | < 4.46 | inhibition [10]: Active; inhibition [11]: Active; half-life [12]: 5 h; Stability [13]: Stable; Activity [14]: Dose-dependent effect; inhibition [15]: Dose-dependent effect; inhibition [16]: Dose-dependent effect; Stability [17]: Stable
